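These data come from cells grown in 96-well plates and exposed to compound for 48 hours at five concentrations. TGI: concentration producing complete growth inhibition.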
How the values were obtained:
Assay in all cases: inhibition of tumour cell growth, NCI panel, 48 h
MDA-MB-435 = test system: MDA-MB-435
OVCAR-5 ovarian = test system: OVCAR-5 ovarian
KM12 colon = test system: KM12 colon
UACC-62 melanoma = test system: UACC-62 melanoma
NCI-H226 lung = test system: NCI-H226 lung
OVCAR-8 ovarian = test system: OVCAR-8 ovarian
SK-MEL-28 melanoma = test system: SK-MEL-28 melanoma
HS 578T breast = test system: HS 578T breast
CCRF-CEM leukemia = test system: CCRF-CEM leukemia
MCF7 breast = test system: MCF7 breast
DU-145 prostate = test system: DU-145 prostate
NCI/ADR-RES ovarian = test system: NCI/ADR-RES ovarian
IGROV1 ovarian = test system: IGROV1 ovarian
EKVX NSCLC = test system: EKVX NSCLC
ACHN renal = test system: ACHN renal
SF-539 CNS = test system: SF-539 CNS
HCT-15 colon = test system: HCT-15 colon
COLO 205 colon = test system: COLO 205 colon
LOX IMVI melanoma = test system: LOX IMVI melanoma
CAKI-1 renal = test system: CAKI-1 renal

Row | SMILES | TGI (MDA-MB-435) [µM] | TGI (OVCAR-5 ovarian) [µM] | TGI (KM12 colon) [µM] | TGI (UACC-62 melanoma) [µM] | TGI (NCI-H226 lung) [µM] | TGI (OVCAR-8 ovarian) [µM] | TGI (SK-MEL-28 melanoma) [µM] | TGI (HS 578T breast) [µM] | TGI (CCRF-CEM leukemia) [µM] | TGI (MCF7 breast) [µM] | TGI (DU-145 prostate) [µM] | TGI (NCI/ADR-RES ovarian) [µM] | TGI (IGROV1 ovarian) [µM] | TGI (EKVX NSCLC) [µM] | TGI (ACHN renal) [µM] | TGI (SF-539 CNS) [µM] | TGI (HCT-15 colon) [µM] | TGI (COLO 205 colon) [µM] | TGI (LOX IMVI melanoma) [µM] | TGI (CAKI-1 renal) [µM]
1 | CC(C)CC(N)C(=O)NC(C(=O)NC(CCCNC(=N)N)C(=O)NC(CS)C(=O)NC1CSCC(C(=O)NC(Cc2ccccc2)C(=O)NC(C(=O)NC(CCCNC(=N)N)C(=O)O)C(C)C)NC(=O)C2CCCN2C(=O)C(CCCCN)NC(=O)C2CCCN2C(=O)C2CCCN2C(=O)C(Cc2ccc(O)cc2)NC(=O)C(CO)NC(=O)C(CCCCN)NC(=O)C(C(C)O)NC(=O)C(Cc2c[nH]c3ccccc23)NC1=O)C(C)C (stereo not given) | > 25 | > 25 | > 25 | > 25 | > 25 | > 25 | > 25 | > 25 | > 25 | > 25 | > 25 | > 25 | > 25 | > 25 | > 25 | > 25 | > 25 | > 25 | > 25 | > 25
2 | O=C1c2c(Br)sc(Br)c2[C@@H](O)[C@H]1O | 25.8 | 36.6 | 45.1 | 30.4 | 37.7 | > 44.4 | 41 | 63.5 | 6.32 | 33 | 30.7 | 56.5 | 35.7 | 34 | 33.5 | 29.3 | 30.1 | 28.5 | 34.1 | 33.7
3 | CC(C)OP(=O)(OC(C)C)C(C)(C)O | > 100 | > 100 | > 100 | > 100 | > 100 | > 100 | > 100 | > 100 | > 100 | > 100 | > 100 | > 100 | > 100 | > 100 | > 100 | > 100 | > 100 | > 100 | > 100 | > 100
4 | O=C(NCCNCCNC(=O)c1cc(-c2ccccc2)nc2ccccc12)c1cc(-c2ccccc2)nc2ccccc12 | 3.34 | 4.91 | 4.03 | 5.77 | 9.16 | 4.54 | 3.25 | 6.86 | > 100 | 3.96 | 6.56 | 4.18 | 7.25 | 11.7 | 4.85 | 3.99 | 8.19 | 3.8 | 3.05 | 24.1
5 | COc1cc2cc(C(=O)N3CC(CCl)c4ccc([N+](C)(C)Cc5ccccc5[N+](=O)[O-])cc43)[nH]c2c(OC)c1OC (stereo not given) | 5.17 | > 31.3 | 10.2 | 2.76 | 19.5 | > 25.5 | 11.4 | 11.7 | > 23.8 | > 100 | > 100 | 34.2 | 17.7 | 21.3 | > 100 | 5.38 | > 100 | 14.9 | 17.1 | 14.5
6 | COC(=O)C(=O)C(C(=O)C(=O)Nc1ccc(C)cc1C)c1nc2ccc(Cl)cc2[nH]c1=O (stereo not given) | > 100 | > 100 | > 100 | > 100 | > 100 | > 100 | > 100 | > 100 | > 100 | > 100 | > 100 | > 100 | > 100 | > 100 | > 100 | > 100 | > 100 | > 100 | > 100 | > 100
7 | O=C1Oc2ccccc2C(=O)/C1=C/N1C(=O)CNC1=S | > 100 | > 100 | > 100 | > 100 | > 100 | > 100 | > 100 | > 100 | > 100 | > 100 | > 100 | > 100 | > 100 | > 100 | > 100 | > 100 | > 100 | > 100 | > 100 | > 100
8 | O=C1OC([C@H](O)c2cccnc2)c2ccccc21 (stereo not given in full) | > 10 | > 10 | > 10 | > 10 | > 10 | > 10 | > 10 | > 10 | > 10 | > 10 | > 10 | > 10 | > 10 | > 10 | > 10 | > 10 | > 10 | > 10 | > 10 | > 10

Source: PubChem BioAssay (NCI)
